In PubChem BioAssay AID248 (DTP/NCI, 2004):
Several values for one entry are separate records, joined by “and”; a condition that tells them apart may be missing. Equal values may be shown once. Toxic doses and inconclusive results are not listed. Cut-off read from the data, not from the text of the source: active = T/C of 150% or more; inactive = T/C below 125%.

Tested on: L1210 leukemia ip in BDF1 mice, survival T/C
Assay: NCI In Vivo Anticancer Drug Screen. Data for tumor model L1210 Leukemia (intraperitoneal) in B6D2F1 (BDF1) mice
Details: endpoint: mean survival time, higher = longer survival
Procedure, shortened: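 Transplanted-tumor mice were given test agent; controls received vehicle only. Survival readings from the two groups were divided (treated over control).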

[1] = dose: 100.0 mg/kg/injection, schedule: Q04DX002 (ip), vehicle: saline with Tween-80
[2] = dose: 100.0 mg/kg/injection, schedule: Q01DX001 (ip), vehicle: saline
[3] = dose: 200.0 mg/kg/injection, schedule: Q01DX001 (ip), vehicle: saline
[4] = dose: 400.0 mg/kg/injection, schedule: Q01DX001 (ip), vehicle: saline
[5] = dose: 100.0 mg/kg/injection, schedule: Q04DX003 (ip), vehicle: Klucel (hydroxypropylcellulose) (HPC)
[6] = dose: 200.0 mg/kg/injection, schedule: Q04DX003 (ip), vehicle: Klucel (hydroxypropylcellulose) (HPC)
[7] = dose: 400.0 mg/kg/injection, schedule: Q04DX003 (ip), vehicle: Klucel (hydroxypropylcellulose) (HPC)

Measured: T/C

O=C(O)c1c(Br)c(Br)c(Br)c(Br)c1C(=O)Nc1ccccc1C(F)(F)F
inactive: dose: 100.0 mg/kg/injection, schedule: Q01DX009 (ip), vehicle: Klucel (hydroxypropylcellulose) (HPC) 101 % of control | dose: 200.0 mg/kg/injection, schedule: Q01DX009 (ip), vehicle: Klucel (hydroxypropylcellulose) (HPC) 93 % of control

COC(OC)(/C(Cl)=C(\Cl)c1ccccc1)c1ccccc1
inactive: [1] 94 % of control | dose: 200.0 mg/kg/injection, schedule: Q04DX002 (ip), vehicle: saline with Tween-80 88 % of control

CC(C)C(=O)Nc1cccc(OC(=O)NC(C)(C)C)c1
inactive: dose: 200.0 mg/kg/injection, schedule: Q01DX001 (ip), vehicle: saline with Tween-80 89 % of control | dose: 400.0 mg/kg/injection, schedule: Q01DX001 (ip), vehicle: saline with Tween-80 87 % of control

O=C(Cc1cc2c(cc1[N+](=O)[O-])OCO2)c1c[nH]c2ccc(Br)cc12
inactive: dose: 50.0 mg/kg/injection, schedule: Q01DX001 (ip), vehicle: saline 98 % of control | [2] 92 % of control | [3] 98 % of control | [4] 95 % of control

COc1cc(OC)c(/C=C2\N=C(c3ccccc3)OC2=O)c(OC)c1
inactive: dose: 100.0 mg/kg/injection, schedule: Q04DX002 (ip), vehicle: other 91 % of control | dose: 200.0 mg/kg/injection, schedule: Q04DX002 (ip), vehicle: other 102 % of control | dose: 400.0 mg/kg/injection, schedule: Q04DX002 (ip), vehicle: other 88 % of control

CC(CCC(=O)O)(c1ccc(O)cc1)c1ccc(O)cc1
inactive: dose: 100.0 mg/kg/injection, schedule: Q04DX003 (ip), vehicle: other 99 % of control | dose: 200.0 mg/kg/injection, schedule: Q04DX003 (ip), vehicle: other 105 % of control | dose: 400.0 mg/kg/injection, schedule: Q04DX003 (ip), vehicle: other 97 % of control

CC1=NC(C)(C)C(C)=C1C
inactive: dose: 25.0 mg/kg/injection, schedule: Q04DX002 (ip), vehicle: saline with Tween-80 91 % of control | dose: 50.0 mg/kg/injection, schedule: Q04DX002 (ip), vehicle: saline with Tween-80 94 % of control | [1] 91 % of control

c1ccc(-c2nc(N=C3N=c4ccccc4=N3)[nH]c2-c2ccccc2)cc1
inactive: [5] 112 % of control | [6] 100 % of control | [7] 96 % of control

CSCSCC(CO)NS(=O)(=O)c1ccc(C)cc1 (centres undefined)
inactive: dose: 100.0 mg/kg/injection, schedule: Q01DX009 (ip), vehicle: saline with Tween-80 107 % of control | dose: 100.0 mg/kg/injection, schedule: Q04DX003 (ip), vehicle: saline with Tween-80 103 % of control | dose: 200.0 mg/kg/injection, schedule: Q01DX009 (ip), vehicle: saline with Tween-80 109 % of control | dose: 200.0 mg/kg/injection, schedule: Q04DX003 (ip), vehicle: saline with Tween-80 97 % of control | dose: 400.0 mg/kg/injection, schedule: Q01DX009 (ip), vehicle: saline with Tween-80 98 % of control | dose: 400.0 mg/kg/injection, schedule: Q04DX003 (ip), vehicle: saline with Tween-80 102 % of control

CC(=N/NC(N)=S)/C(C)=N/NC(N)=S
inactive: dose: 15.0 mg/kg/injection, schedule: Q01DX Z (ip), vehicle: carboxymethylcellulose (CMC) 97 % of control | dose: 30.0 mg/kg/injection, schedule: Q01DX Z (ip), vehicle: carboxymethylcellulose (CMC) 97 % of control | dose: 50.0 mg/kg/injection, schedule: Q01DX001 (ip), vehicle: carboxymethylcellulose (CMC) 95 % of control | dose: 60.0 mg/kg/injection, schedule: Q01DX Z (ip), vehicle: carboxymethylcellulose (CMC) 101 % of control and 91 % of control | dose: 100.0 mg/kg/injection, schedule: Q01DX001 (ip), vehicle: carboxymethylcellulose (CMC) 87 % of control | [2] 110 % of control | dose: 100.0 mg/kg/injection, schedule: Q01DX009 (ip), vehicle: saline 91 % of control | dose: 100.0 mg/kg/injection, schedule: Q04DX003 (ip), vehicle: saline 98 % of control | dose: 120.0 mg/kg/injection, schedule: Q01DX Z (ip), vehicle: carboxymethylcellulose (CMC) 95 % of control | dose: 200.0 mg/kg/injection, schedule: Q01DX001 (ip), vehicle: carboxymethylcellulose (CMC) 87 % of control | [3] 106 % of control | dose: 200.0 mg/kg/injection, schedule: Q01DX009 (ip), vehicle: saline 88 % of control | dose: 200.0 mg/kg/injection, schedule: Q04DX003 (ip), vehicle: saline 86 % of control | dose: 240.0 mg/kg/injection, schedule: Q01DX Z (ip), vehicle: carboxymethylcellulose (CMC) 93 % of control | dose: 240.0 mg/kg/injection, schedule: Q01DX Z (oral), vehicle: carboxymethylcellulose (CMC) 105 % of control | dose: 400.0 mg/kg/injection, schedule: Q01DX001 (ip), vehicle: carboxymethylcellulose (CMC) 89 % of control | [4] 101 % of control | dose: 400.0 mg/kg/injection, schedule: Q01DX009 (ip), vehicle: saline 93 % of control | dose: 400.0 mg/kg/injection, schedule: Q04DX003 (ip), vehicle: saline 91 % of control | dose: 480.0 mg/kg/injection, schedule: Q01DX Z (ip), vehicle: carboxymethylcellulose (CMC) 87 % of control | dose: 480.0 mg/kg/injection, schedule: Q01DX Z (oral), vehicle: carboxymethylcellulose (CMC) 102 % of control | dose: 960.0 mg/kg/injection, schedule: Q01DX Z (oral), vehicle: carboxymethylcellulose (CMC) 102 % of control | dose: 1920.0 mg/kg/injection, schedule: Q01DX Z (oral), vehicle: carboxymethylcellulose (CMC) 111 % of control

CN(C)c1ccccc1CN1CCCN(Cc2ccccc2N(C)C)C1c1ccncc1
inactive: dose: 6.0 mg/kg/injection, schedule: Q12HX018 (ip), vehicle: other 96 % of control | dose: 12.0 mg/kg/injection, schedule: Q12HX018 (ip), vehicle: other 103 % of control | dose: 24.0 mg/kg/injection, schedule: Q12HX018 (ip), vehicle: other 101 % of control

O=C(O)c1cc(=O)c(O)c2c(O)c(O)c(O)cc2c1
inactive: [2] 103 % of control | [3] 91 % of control

Oc1ccccc1CNc1ccccc1
inactive: [5] 96 % of control | [6] 94 % of control | [7] 96 % of control

CSc1cc(N)nc(N)c1[N+](=O)[O-]
inactive: dose: 100.0 mg/kg/injection, schedule: Q01DX001 (ip), vehicle: Klucel (hydroxypropylcellulose) (HPC) 99 % of control | dose: 200.0 mg/kg/injection, schedule: Q01DX001 (ip), vehicle: Klucel (hydroxypropylcellulose) (HPC) 96 % of control | dose: 400.0 mg/kg/injection, schedule: Q01DX001 (ip), vehicle: Klucel (hydroxypropylcellulose) (HPC) 94 % of control

Oc1cccc[c]1[Hg][Cl]
inactive: dose: 1.0 mg/kg/injection, schedule: Q01DX009 (ip), vehicle: Klucel (hydroxypropylcellulose) (HPC) 98 % of control | dose: 1.0 mg/kg/injection, schedule: Q04DX003 (ip), vehicle: saline 98 % of control | dose: 3.0 mg/kg/injection, schedule: Q01DX009 (ip), vehicle: Klucel (hydroxypropylcellulose) (HPC) 89 % of control | dose: 3.0 mg/kg/injection, schedule: Q04DX003 (ip), vehicle: saline 94 % of control | dose: 6.0 mg/kg/injection, schedule: Q01DX009 (ip), vehicle: Klucel (hydroxypropylcellulose) (HPC) 94 % of control and 91 % of control

CCC1(C)CC(=O)NC(=O)C1
inactive: dose: 0.9 mg/kg/injection, schedule: Q01DX009 (ip), vehicle: saline 98 % of control | dose: 1.87 mg/kg/injection, schedule: Q01DX009 (ip), vehicle: saline 108 % of control | dose: 3.75 mg/kg/injection, schedule: Q01DX009 (ip), vehicle: saline 104 % of control | dose: 3.75 mg/kg/injection, schedule: Q04DX003 (ip), vehicle: saline 106 % of control | dose: 5.0 mg/kg/injection, schedule: Q04DX003 (ip), vehicle: saline with Tween-80 101 % of control | dose: 7.5 mg/kg/injection, schedule: Q01DX009 (ip), vehicle: saline 106 % of control | dose: 7.5 mg/kg/injection, schedule: Q04DX003 (ip), vehicle: saline 92 % of control | dose: 10.0 mg/kg/injection, schedule: Q04DX003 (ip), vehicle: saline with Tween-80 97 % of control | dose: 15.0 mg/kg/injection, schedule: Q01DX009 (ip), vehicle: saline 100 % of control | dose: 15.0 mg/kg/injection, schedule: Q04DX003 (ip), vehicle: saline 95 % of control

C[N+](C)(CCCCOCCCC[N+](C)(C)Cc1ccc([N+](=O)[O-])cc1)Cc1ccc([N+](=O)[O-])cc1
inactive: dose: 1.5 mg/kg/injection, schedule: Q04DX003 (ip), vehicle: saline with Tween-80 98 % of control | dose: 3.0 mg/kg/injection, schedule: Q04DX003 (ip), vehicle: saline with Tween-80 104 % of control
